Assay results as given in patent publication US9187465B2, “Oxazole tyrosine kinase inhibitors” (Sareum Limited, priority 2007, dated 2015).
Where two headings read alike, the source gives them in different places.

Assays:
Type in all cases: biochemical
[1] = target: T1, human FLT3 (Homo sapiens, UniProt P36888); assay: FLT3 kinase assay (DELFIA enzyme inhibition)
T1 construct: a construct expressing the human FLT3 (564-993) with an amino terminal GST tag; host or cells: Sf9 insect cells (baculovirus)
T1 sequence (P36888 564-993): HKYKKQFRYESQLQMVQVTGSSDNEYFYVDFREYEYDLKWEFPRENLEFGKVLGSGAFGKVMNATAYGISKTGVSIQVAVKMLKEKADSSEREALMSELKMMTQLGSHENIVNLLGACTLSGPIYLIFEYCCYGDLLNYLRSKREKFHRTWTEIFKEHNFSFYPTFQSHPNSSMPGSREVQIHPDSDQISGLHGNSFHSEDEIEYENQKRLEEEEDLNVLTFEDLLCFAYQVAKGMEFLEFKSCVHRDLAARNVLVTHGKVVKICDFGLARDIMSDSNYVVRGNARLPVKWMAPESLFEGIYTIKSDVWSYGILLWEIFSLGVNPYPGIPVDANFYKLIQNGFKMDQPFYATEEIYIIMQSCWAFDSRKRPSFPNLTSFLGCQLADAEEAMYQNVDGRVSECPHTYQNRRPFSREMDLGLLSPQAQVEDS
Experimental: A GST-kinase fusion protein of 70 KDa was produced using sf9 baculovirus expression system, with a construct expressing the human FLT3 (564-993) with an amino terminal GST tag. The protein was purified by one-step affinity chromatography using glutathione-agarose.
FLT3 enzyme activity is determined using a Dissociation Enhanced Lanthanide Fluorescent Immunoassay (DELFIA) with a peptide substrate derived from the Gastrin Precursor (Tyr 87) peptide […] with a core sequence: EAYGW.
The amount of phosphorylated peptide produced is detected by means of a phospho-Tyrosine specific Europium-labelled antibody using Time-Resolved Fluorescence at Excitation 360-35 nm and Emission 620-35 nm.
Assay reactions are set up in a 25 uL final volume on a 96 well plate. […] The reaction is allowed to proceed for 30 minutes at room temperature before stopping with 100 μL Stop solution comprising of 100 mM EDTA, 1×BSA blocker in TBS (Perbio) and 0.05% Surfact-Amps20 (Perbio).
The stopped reaction is transferred to a black 96-well Neutravidin-coated plate (Perbio) and incubated for 30 minutes to capture the biotinylated peptide substrate. After washing wells 3 times with 200 uL TBS/T buffer, Anti-Phospho-Tyr-100 antibody labelled with Eu—N1 (Perkin Elmer AD0159) is added to all wells for 60 minutes at room temperature. After a repeat washing step, DELFIA Enhancement solution (Perkin Elmer) is added to all wells for 5 minutes and the fluorescence measured on a plate reader Analyst HT (Molecular Devices).
The % inhibition of the activity is calculated and plotted in order to determine the concentration of test compound required to inhibit 50% of the enzyme activity (IC50).

[2] = target: T2, human FLT4 (Homo sapiens, UniProt P35916); assay: FLT4 kinase assay (DELFIA enzyme inhibition)
T2 construct: a construct expressing the human FLT4 (789-1207) with an amino terminal GST tag; host or cells: Sf9 insect cells (baculovirus)
Outline: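 GST-tagged human FLT4 (789-1207) from Sf9 cells phosphorylates a biotinylated MET (Tyr1253)-derived peptide for 30 min at room temperature, stopped with EDTA. Phosphopeptide is captured on Neutravidin and detected with Eu-labelled anti-phosphotyrosine antibody by time-resolved fluorescence; IC50 from % inhibition curves.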

[3] = target: T3, human Aurora A (Homo sapiens, UniProt O14965); assay: Aurora A kinase assay (DELFIA enzyme inhibition)
T3 construct: Histidine tag (N); host or cells: Sf9 insect cells (baculovirus)
T3 sequence (O14965 1-403): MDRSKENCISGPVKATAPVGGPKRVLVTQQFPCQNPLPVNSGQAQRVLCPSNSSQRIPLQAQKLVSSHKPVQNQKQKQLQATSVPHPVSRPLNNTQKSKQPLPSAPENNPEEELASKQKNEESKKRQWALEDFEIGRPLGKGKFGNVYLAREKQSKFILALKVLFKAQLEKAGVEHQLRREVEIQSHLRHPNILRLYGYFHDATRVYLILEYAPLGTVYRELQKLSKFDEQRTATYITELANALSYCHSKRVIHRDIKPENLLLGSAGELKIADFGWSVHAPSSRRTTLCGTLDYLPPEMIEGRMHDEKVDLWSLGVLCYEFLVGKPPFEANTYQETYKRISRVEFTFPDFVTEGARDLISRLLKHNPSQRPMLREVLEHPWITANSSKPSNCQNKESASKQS
Outline: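 DELFIA read-out (time-resolved Eu fluorescence, 620 nm emission) after Neutravidin capture of biotinylated peptide substrate and antibody detection. Reaction: Ni-agarose-purified Aurora A, 30 min at room temperature, stopped with 100 mM EDTA.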

T2 sequence (P35916 789-1207): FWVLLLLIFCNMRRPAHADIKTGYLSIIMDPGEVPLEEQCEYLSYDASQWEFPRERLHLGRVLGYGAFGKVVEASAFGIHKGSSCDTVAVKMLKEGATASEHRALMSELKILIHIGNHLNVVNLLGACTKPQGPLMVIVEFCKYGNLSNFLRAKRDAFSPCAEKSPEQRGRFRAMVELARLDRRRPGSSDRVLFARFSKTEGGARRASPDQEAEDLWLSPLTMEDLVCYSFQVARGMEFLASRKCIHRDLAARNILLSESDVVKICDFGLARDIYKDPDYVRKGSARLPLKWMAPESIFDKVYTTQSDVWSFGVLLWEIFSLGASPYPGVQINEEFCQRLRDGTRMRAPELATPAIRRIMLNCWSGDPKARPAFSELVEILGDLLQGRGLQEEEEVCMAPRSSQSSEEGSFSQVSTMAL

SMILES	IC50 [1]	IC50 ([2]; read-out: FLT4 IC50)	IC50 ([3]; read-out: Aurora A IC50)	IC50 [3]	IC50 [2]
NC(=O)c1nc(-c2c(F)cccc2F)oc1-c1ccccn1 [Example F-2, 2-(2,6-difluorophenyl)-5-(pyridin-2-yl)oxazole-4-carboxamide]	< 100 µM	< 100 µM			
COc1ccc(Nc2nc(C(N)=O)c(-c3ccc(OC)cc3)o2)cc1 [Example R-4, 5-(4-methoxyphenyl)-2-(4-methoxyphenylamino)oxazole-4-carboxamide]		< 10 µM	< 100 µM		
NC(=O)c1nc(-c2c(F)cccc2F)oc1-c1ccc(OCC2CCNCC2)cc1 [Example S-14, 2-(2,6-difluorophenyl)-5-(4-(piperidin-4-ylmethoxy)phenyl)oxazole-4-carboxamide]		< 10 µM	< 10 µM		
CCCN(CCO)CCOc1ccc(-c2oc(-c3c(F)cccc3F)nc2C(N)=O)cc1 [Example S-16, 2-(2,6-difluorophenyl)-5-(4-(2-((2-hydroxyethyl)(propyl)amino)ethoxy)phenyl)oxazole-4-carboxamide]		< 10 µM	< 10 µM		
NC(=O)c1nc(-c2c(F)cccc2F)oc1-c1ccc(OCCN2CCCC(O)C2)cc1 (stereo not drawn) [Example S-17, 2-(2,6-difluorophenyl)-5-(4-(2-(3-hydroxypiperidin-1-yl)ethoxy)phenyl)oxazole-4-carboxamide]		< 10 µM	< 10 µM		
NC(=O)c1nc(-c2c(F)cccc2F)oc1-c1ccc(OCCN2CCC(CO)CC2)cc1 [Example S-18, 2-(2,6-difluorophenyl)-5-(4-(2-(4-(hydroxymethyl)piperidin-1-yl)ethoxy)phenyl)oxazole-4-carboxamide]		< 10 µM	< 10 µM		
NC(=O)c1nc(-c2c(F)cccc2F)oc1Nc1ccc(C(=O)N2CCOCC2)cc1 [Example U-2, 2-(2,6-difluorophenyl)-5-(4-(morpholine-4-carbonyl)phenylamino)oxazole-4-carboxamide]		< 10 µM	< 10 µM		
CNCCNC(=O)c1ccc(Nc2oc(-c3c(F)cccc3F)nc2C(N)=O)cc1 [Example U-3, 5-(4-((2-(methylamino)ethyl)carbamoyl)phenylamino)-2-(2,6-difluorophenyl) oxazole-4-carboxamide]		< 10 µM	< 10 µM		
NC(=O)c1nc(-c2c(F)cccc2F)oc1Nc1ccc(C(=O)NCCN2CCOCC2)cc1 [Example U-9, 5-(4-((2-morpholinoethyl)carbamoyl)phenylamino)-2-(2,6-difluorophenyl)oxazole-4-carboxamide]		< 10 µM	< 10 µM		
NC(=O)c1nc(-c2c(F)cccc2F)oc1Nc1ccc(C(=O)NC2CN3CCC2CC3)cc1 (stereo not drawn) [Example U-10, 2-(2,6-difluorophenyl)-5-(4-(quinuclidin-3-ylcarbamoyl)phenylamino)oxazole-4-carboxamide]				< 10 µM	< 10 µM
CN1C2CCC1CC(NC(=O)c1ccc(Nc3oc(-c4c(F)cccc4F)nc3C(N)=O)cc1)C2 (stereo not drawn) [Example U-11, 5-(4-((8-methyl-8-aza-bicyclo[3.2.1]octan-3-yl)carbamoyl)phenylamino)-2-(2,6-difluorophenyl)oxazole-4-carboxamide]				< 10 µM	< 10 µM

More lines, main results first:

IC50 [1]	IC50 ([2]; read-out: FLT4 IC50)	IC50 ([3]; read-out: Aurora A IC50)	SMILES	IC50 [3]	IC50 [2]
< 100 µM	< 10 µM		CN(C)c1ccc(-c2oc(-c3c(F)cccc3F)nc2C(N)=O)cn1 [Example F-7, 2-(2,6-difluorophenyl)-5-(6-(dimethylamino)pyridin-3-yl)oxazole-4-carboxamide]		
< 100 µM			COc1ccc(-c2oc(-c3ccc(S(C)(=O)=O)cc3)nc2C(N)=O)cc1 [Example M-11, 5-(4-methoxyphenyl)-2-(4-(methylsulfonyl)phenyl)oxazole-4-carboxamide]		
	< 10 µM	< 10 µM	NC(=O)c1nc(-c2c(F)cccc2F)oc1Nc1ccc(C(=O)NC[C@@H]2CCCNC2)cc1 [Example Q-55, (R)-5-(4-((piperidin-3-ylmethyl)carbamoyl)phenylamino)-2-(2,6-difluorophenyl)oxazole-4-carboxamide]		
	< 10 µM	< 10 µM	NC(=O)c1nc(-c2cccc3[nH]ncc23)oc1Nc1ccc(N2CCNCC2)cc1 [Example Q-59, 2-(1H-indazol-4-yl)-5-(4-(piperazin-1-yl)phenylamino)oxazole-4-carboxamide]		
	< 10 µM	< 10 µM	COc1ccc(-c2oc(Nc3cccc(C)c3)nc2C(N)=O)cc1 [Example R-6, 2-(m-toluidino)-5-(4-methoxyphenyl)oxazole-4-carboxamide]		
	< 10 µM	< 10 µM	Cc1ccccc1Nc1nc(C(N)=O)c(-c2ccc(N3CCNCC3)cc2)o1 [Example R-10, 2-(o-toluidino)-5-(4-(piperazin-1-yl)phenyl)oxazole-4-carboxamide]		
	< 10 µM	< 10 µM	NC(=O)c1nc(Nc2ccnn2Cc2ccccc2)oc1-c1ccc(N2CCNCC2)cc1 [Example R-18, 2-(1-benzyl-1H-pyrazol-5-ylamino)-5-(4-(piperazin-1-yl)phenyl)oxazole-4-carboxamide]		
	< 10 µM	< 10 µM	NC(=O)c1nc(-c2c(F)cccc2F)oc1-c1ccc(OCC2CNCCO2)cc1 (stereo not drawn) [Example S-15, 2-(2,6-difluorophenyl)-5-(4-(morpholin-2-ylmethoxy)phenyl)oxazole-4-carboxamide]		
	< 10 µM	< 10 µM	CCN(CCO)CCOc1ccc(-c2oc(-c3c(F)cccc3F)nc2C(N)=O)cc1 [Example S-19, 2-(2,6-difluorophenyl)-5-(4-(2-(ethyl(2-hydroxyethyl)amino)ethoxy)phenyl)oxazole-4-carboxamide]		
	< 10 µM	< 10 µM	CNCCOc1ccc(-c2oc(-c3c(F)cccc3F)nc2C(N)=O)cc1 [Example S-20, 2-(2,6-difluorophenyl)-5-(4-(2-(methylamino)ethoxy)phenyl)oxazole-4-carboxamide]		
	< 10 µM	< 10 µM	NC(=O)c1nc(-c2c(F)cccc2F)oc1-c1ccc(OCCNCCO)cc1 [Example S-21, 2-(2,6-difluorophenyl)-5-(4-(2-(2-hydroxyethylamino)ethoxy)phenyl)oxazole-4-carboxamide]		
	< 10 µM	< 10 µM	CNCCCNC(=O)c1ccc(Nc2oc(-c3c(F)cccc3F)nc2C(N)=O)cc1 [Example U-4, 5-(4-((3-(methylamino)propyl)carbamoyl)phenylamino)-2-(2,6-difluorophenyl) oxazole-4-carboxamide]		
	< 10 µM	< 10 µM	NC(=O)c1nc(-c2c(F)cccc2F)oc1Nc1ccc(C(=O)N[C@@H]2CCNC2)cc1 [Example U-6, (R)-2-(2,6-difluorophenyl)-5-(4-(pyrrolidin-3-ylcarbamoyl)phenylamino)oxazole-4-carboxamide]		
	< 10 µM	< 10 µM	NC(=O)c1nc(-c2c(F)cccc2F)oc1Nc1ccc(C(=O)N[C@H]2CCNC2)cc1 [Example U-7, (S)-2-(2,6-difluorophenyl)-5-(4-(pyrrolidin-3-ylcarbamoyl)phenylamino)oxazole-4-carboxamide]		
	< 10 µM	< 10 µM	CN(C)CCNC(=O)c1ccc(Nc2oc(-c3c(F)cccc3F)nc2C(N)=O)cc1 [Example U-8, 5-(4-((2-(dimethylamino)ethyl)carbamoyl)phenylamino)-2-(2,6-difluorophenyl) oxazole-4-carboxamide]		
